Data published in article PMC6645336 (ACS Omega, 2018).
Several values for one entry are separate records, joined by “and”; a condition that tells them apart may be missing. Identical values can stand only once. Like-named read-outs stand apart in the source and are kept apart here. One block for each molecule: values may come before it.

Columns and labels:
[1] = Literature reports of residue distribution in milk products; set-up: species or system cow; details: 15% of whole milk in their study, 10% in ours; from ref 18 data
[2] = cited from earlier work; for log P / log D (pH 7.4): discussion compounds, Table S4
[3] = cited from earlier work
[4] = cited from earlier work; remark: listed apart in the source
[5] = Phase 1: chemical distribution from whole milk into milk fat and skim milk; type: physicochemical, cow; details: for distribution into milk fat, percent of total amount added: mean of all doses; for ratio of concentration in skim milk to initial concentration in whole milk / ratio of concentration in milk fat to initial concentration in whole milk: mean of dose means
[6] = Phase 2: chemical distribution from skim milk into curd and whey; type: physicochemical, cow; details: for curd/whey concentration ratio: curd as obtained (70% moisture); for concentration ratio of 0% moisture curd to whey: dry matter basis; for Curd Fraction % Dose: phase 2, based on skim milk
[7] = cited from earlier work; remark: listed apart in the source

Molecule: CNP(=O)(OC)Oc1ccc(C(C)(C)C)cc1Cl (stereo not shown) [cruformate]
concentration into cream adjusted to reflect lipid mass yield [1]: ~7.6 fold
log P [2]: 3.33
concentration into cream relative to whole milk ([3]; fed to cows): fivefold
curd/whey concentration ratio ([3]; starting milk concentration 0.07 ppm): 22
curd/whey concentration ratio ([3]; starting milk concentration 0.16 ppm): 31

Molecule: ClC1=C(Cl)C2(Cl)C3C(Cl)C=CC3C1(Cl)C2(Cl)Cl (stereo not shown) [heptachlor]
log P [2]: 5.46
curd/whey concentration ratio [3]: 22

Molecule: CC[C@H]1OC(=O)[C@H](C)[C@@H](O[C@H]2C[C@@](C)(OC)[C@@H](O)[C@H](C)O2)[C@H](C)[C@@H](O[C@@H]2O[C@H](C)C[C@H](N(C)C)[C@H]2O)[C@](C)(O)C[C@@H](C)C(=O)[C@H](C)[C@@H](O)[C@]1(C)O [ERY, erythromycin]
curd/whey concentration ratio [4]: 2.4

Molecule: Clc1cc2c(cc1Cl)Oc1cc(Cl)c(Cl)cc1O2 [2,3,7,8-TCDD]
residues in cream exceeding those in milk, factor ([3]; lactating dairy cows, medium heavy cream): about 10

Molecule: COP(=S)(OC)Oc1ccc(SC)c(C)c1 [fenthion]
log P [2]: 3.21
concentration ratio of fat/whole milk [3]: ~5
percent found in the fat fractions [3]: 80–90%

Molecule: CS(=O)(=O)c1ccc([C@@H](O)[C@@H](CO)NC(=O)C(Cl)Cl)cc1 [TAP, thiamphenicol]
curd/whey concentration ratio [4]: 1.3

Molecule: O=[N+]([O-])NC1=NCCN1Cc1ccc(Cl)nc1 [IMI, imidacloprid]
distribution into milk fat, percent of total amount added [5]: 2.5%
ratio of concentration in skim milk to initial concentration in whole milk [5]: ~1
curd/whey concentration ratio ([6]; mean of doses): 2.4
concentration ratio of 0% moisture curd to whey ([6]; mean of doses): 9.2
chemical retained in the curd fraction, percent of chemical in skim milk ([6]; mean of doses): 23.7%

distribution into milk fat, percent of total amount added [5]: > 80% and 85%
ratio of concentration in milk fat to initial concentration in whole milk [5]: 18–20 and 17.6
concentration ratio of 0% moisture curd to whey ([6]; mean of doses): 46
chemical distributed into whey, percent of chemical in skim milk ([6]; mean of doses): 35–60%
chemical retained in the curd fraction, percent of chemical in skim milk ([6]; mean of doses): 40–60%
percent of skim milk chemical in 0% moisture curd ([6]; mean of doses): 57%
Molecule: O=C(Nc1ccc(Cl)cc1)Nc1ccc(Cl)c(Cl)c1 [TCC, triclocarban]

Molecule: CC(=O)Nc1ccc(O)cc1 [TYL, acetaminophen]
curd/whey concentration ratio [4]: 1.5

Molecule: Brc1ccc(Oc2cc(Br)c(Br)cc2Br)c(Br)c1 [BDE-99, 2,2′,4,4′,5-pentabromodiphenyl ether]
distribution into milk fat, percent of total amount added [5]: > 80%
ratio of concentration in milk fat to initial concentration in whole milk [5]: 18–20
concentration ratio of 0% moisture curd to whey ([6]; mean of doses): 327
chemical retained in the curd fraction, percent of chemical in skim milk ([6]; mean of doses): ~80%
Curd Fraction % Dose ([6]; nominal 20 nM in whole milk): 73%
Curd Fraction % Dose ([6]; nominal 200 nM in whole milk): 80%
Curd Fraction % Dose ([6]; nominal 2000 nM in whole milk): 92%

Molecule: Clc1ccc(-c2cc(Cl)c(Cl)cc2Cl)cc1Cl [PCB-118, 2,3′,4,4′,5-pentachlorobiphenyl]
distribution into milk fat, percent of total amount added [5]: > 80%
ratio of concentration in milk fat to initial concentration in whole milk [5]: 18–20 and 19.5
concentration ratio of 0% moisture curd to whey ([6]; mean of doses): 136
chemical retained in the curd fraction, percent of chemical in skim milk ([6]; mean of doses): ~80%

distribution into milk fat, percent of total amount added [5]: 39%
curd/whey concentration ratio ([6]; mean of doses): 29
concentration ratio of 0% moisture curd to whey ([6]; mean of doses): 111
Molecule: CC(C)(c1ccc(O)cc1)c1ccc(O)cc1 [BPA, bisphenol A]

Molecule: Clc1ccc(C(c2ccc(Cl)cc2)C(Cl)(Cl)Cl)cc1 [DDT, dichlorodiphenyltrichloroethane]
log P [2]: 5.92
log D (pH 7.4) [2]: 6.22
starting DDT degraded to DDE and DDD ([3]; during the manufacturing of cheese): 27–53%
concentration in Swiss-type cheese relative to original whole milk ([3]; milk of dairy cows fed DDT): ~8 times
cream/whole milk ratio ([3]; pasteurized milk): 12
cream/whole milk ratio ([3]; raw milk): 9.0

Molecule: O=C(O)CNCP(=O)(O)O [GLY, glyphosate]
distribution into milk fat, percent of total amount added [5]: 0.95%
ratio of concentration in milk fat to initial concentration in whole milk [5]: 0.2
ratio of concentration in skim milk to initial concentration in whole milk [5]: ~1
curd/whey concentration ratio ([6]; mean of doses): 1.4
concentration ratio of 0% moisture curd to whey ([6]; mean of doses): 2.5
chemical retained in the curd fraction, percent of chemical in skim milk ([6]; mean of doses): approximately 16.5%

Molecule: Oc1c(Cl)cc2c(c1Cl)Oc1cc(Cl)c(Cl)cc1O2 [2-OH-1378-TCDD, 2-hydroxy-1,3,7,8-tetrachlorodibenzo-p-dioxin]
reduction in milk fat distribution by hydroxylation ([5]; 2-OH-1378-TCDD compared with 1278-TCDD): ~30%
distribution into milk fat, percent of total amount added [5]: 54%
ratio of concentration in milk fat to initial concentration in whole milk [5]: 11.2
greater distribution into whey compared to the unsubstituted analogue ([6]; 2-OH-1378-TCDD vs 1278-TCDD, 3′-MeSO2-PCB-101 vs PCB-118): ~30%
percent of whole milk chemical distributed to whey ([6]; based on whole milk): About 25%
concentration ratio of 0% moisture curd to whey ([6]; mean of doses): 18
chemical distributed into whey, percent of chemical in skim milk ([6]; mean of doses): 35–60%
chemical retained in the curd fraction, percent of chemical in skim milk ([6]; mean of doses): 40–60%

Molecule: CN(C)[C@@H]1C(O)=C(C(N)=O)C(=O)[C@@]2(O)C(O)=C3C(=O)c4c(O)cccc4[C@@](C)(O)[C@H]3[C@H](O)[C@@H]12 [OTET, oxytetracycline]
curd/whey concentration ratio [4]: 1.4

Molecule: CC1(C)S[C@@H]2[C@H](NC(=O)Cc3ccccc3)C(=O)N2[C@H]1C(=O)O [PENG, penicillin G]
curd/whey concentration ratio [4]: 1.2

Molecule: ivermectin [IVR]
milk fat/whole milk concentration ratio [7]: 18.4
log P, parenthesis value ([2]; Table S1, value cited in the earlier paper): 6.61

Molecule: ClC1=C(Cl)C2(Cl)C3C4CC(C5OC45)C3C1(Cl)C2(Cl)Cl (stereo not shown) [endrin]
log P [2]: 4.9
log D (pH 7.4) [2]: 4.9
curd/whey concentration ratio [3]: 91

distribution into milk fat, percent of total amount added [5]: 74%
ratio of concentration in milk fat to initial concentration in whole milk [5]: 15.8 and ~16
curd/whey concentration ratio ([6]; mean of doses): 24
concentration ratio of 0% moisture curd to whey ([6]; mean of doses): 104
Molecule: C[C@]12CC[C@@H]3c4ccc(O)cc4CC[C@H]3[C@@H]1CCC2=O [E1, estrone]

Molecule: Clc1cc2c(cc1Cl)Oc1c(ccc(Cl)c1Cl)O2 [1278-TCDD, 1,2,7,8-tetrachlorodibenzo-p-dioxin]
distribution into milk fat, percent of total amount added [5]: > 80%
ratio of concentration in milk fat to initial concentration in whole milk [5]: 18–20 and 18.7
concentration ratio of 0% moisture curd to whey ([6]; mean of doses): 115
chemical retained in the curd fraction, percent of chemical in skim milk ([6]; mean of doses): ~80%

Molecule: Cl[C@H]1[C@H](Cl)[C@@H](Cl)[C@@H](Cl)[C@H](Cl)[C@H]1Cl [lindane, 1,2,3,4,5,6-hexachlorcyclohexane]
log P [2]: 3.99
concentration in curd relative to whey [3]: approximately 12 times
reduction by pasteurization [3]: 65–73%
losses in Ras cheese ([3]; during 6 months in storage): 36.7%
losses during refrigeration of yogurt ([3]; over 3 days): 1.4–8%
